The source of these data is PubChem BioAssay AID504481 (NMMLSC, 2011).

The structures appear in SMILES notation. Active and inactive are the calls of the source.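 The calls were made as follows: active = fold change below 0.65 in a panel strain, matching the primary screen cutoff; inactive = the rest.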

Among the test systems are YBR084C-A; YCL025C; YCR005C; YKL103C; BY4741; YNL142W.
Common to all, as to assay: GFP reporter expression in transducer deletion yeast, mechanism study for yeast TOR pathway modulator project, S. cerevisiae, transducer mutant strains, GFP-tagged proteins (AID 504481);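 also: 1 = DMSO wells as ratio of mean channel GFP fluorescence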
Holding throughout (settings): S. cerevisiae transducer mutants, GFP-fusion expression, flow cytometry, 3 h
A general note: Flow cytometry measures light scatter and fluorescence of single cells or particles in a stream.

With `CCCOc1ccc(C(=O)NNC(=S)NC(=O)CC)cc1`, the fold change with YBR084C-A was 1.22 (inactive); in the experiment with YCL025C it was 1.05 (inactive); with YCR005C, 1.21 (inactive); in the experiment with YKL103C, 2.42; in the experiment with BY4741 it was 1.77 (inactive); with YNL142W it was 1.17 (inactive).

Take `O=[N+]([O-])c1ccc(O)c2ncccc12`: the fold change in the experiment with YBR084C-A was 1.19 (inactive); with YCL025C, 1.47 (inactive); in the experiment on YCR005C, 1.21 (inactive); with YKL103C, 2.22; in the experiment on BY4741, 1.48 (inactive); in the experiment on YNL142W it was 1.26 (inactive).

As to `CCSc1nnc(NC(=O)c2ccccn2)s1`, the fold change in the experiment on YBR084C-A is 0.968 (inactive); in the experiment on YCL025C, 0.982 (inactive); in the experiment on YCR005C it was 0.897 (inactive); in the experiment with YKL103C, 1.13 (inactive); with BY4741, 0.946 (inactive); with YNL142W it was 1.05 (inactive).

As to `Cc1ccc(S(=O)(=O)c2ccc([N+](=O)[O-])cn2)cc1`, the fold change with YBR084C-A was 0.894 (inactive); in the experiment with YCL025C, 1.17 (inactive); in the experiment on YCR005C, 1.62; in the experiment on YKL103C it was 1.65; in the experiment with BY4741, 1.05 (inactive); in the experiment with YNL142W, 1.36 (inactive).

For the compound `CC(=O)SC(C[N+](=O)[O-])c1cn(C(C)=O)c2ccccc12` (stereo not given), the fold change was 1.08 (inactive) in the experiment on YBR084C-A; 0.77 (inactive) in the experiment on YCL025C; 0.93 (inactive) with YCR005C; 1.48 (inactive) with YKL103C; 1 (inactive) in the experiment with BY4741; 0.785 (inactive) with YNL142W.

`Cc1ccc(/C=C2/C(=O)ON=C2c2ccccc2)o1`: the fold change with YBR084C-A was 0.942 (inactive); in the experiment on YCL025C, 0.837 (inactive); with YCR005C, 1.47 (inactive); in the experiment on YKL103C, 1.61; with BY4741, 1.42 (inactive); in the experiment on YNL142W it was 1.23 (inactive).

Regarding `Cc1ccc(C(=O)NNC(=S)NC(=O)COc2ccccc2)cc1`, the fold change in the experiment with YBR084C-A was 1.19 (inactive); in the experiment with YCL025C, 1 (inactive); in the experiment on YCR005C it was 1.34 (inactive); in the experiment on YKL103C, 1.93; in the experiment on BY4741, 1.28 (inactive); with YNL142W, 1.08 (inactive).

Turning to `CC(C)(C)C(=O)NC(=S)NNC(=O)c1ccc(-c2ccccc2)cc1`, the fold change was 1.19 (inactive) with YBR084C-A; 1.32 (inactive) in the experiment with YCL025C; 1.2 (inactive) in the experiment with YCR005C; 2.06 in the experiment with YKL103C; 1.48 (inactive) in the experiment with BY4741; 1.46 (inactive) in the experiment on YNL142W.

With `O=C(OCn1ncc(Br)c(Br)c1=O)c1c(F)cccc1F`, the fold change is 0.936 (inactive) with YBR084C-A; 0.921 (inactive) with YCL025C; 1.48 (inactive) in the experiment with YCR005C; 1.31 (inactive) with YKL103C; 0.865 (inactive) in the experiment on BY4741; 0.911 (inactive) in the experiment with YNL142W.

With `CC(Oc1ccc(Cl)cc1)C(=O)NNC(=S)NC(=O)c1ccco1` (stereo not given), the fold change in the experiment on YBR084C-A was 1.09 (inactive); in the experiment on YCL025C, 0.906 (inactive); in the experiment with YCR005C, 1.21 (inactive); in the experiment on YKL103C, 2.14; in the experiment on BY4741, 1.49 (inactive); with YNL142W, 1.33 (inactive).

As to `CC(=O)c1ccc(N2CCN(C(=O)c3ccc(Br)cc3)CC2)c(F)c1`, the fold change in the experiment on YBR084C-A is 1.27 (inactive); in the experiment on YCL025C, 1.22 (inactive); with YCR005C, 1.72; in the experiment with YKL103C, 1.69; with BY4741, 1.31 (inactive); with YNL142W, 1.3 (inactive).

Take `O=[N+]([O-])c1ccc(S(=O)(=O)c2cccc(C(F)(F)F)c2)nc1`: the fold change is 0.793 (inactive) in the experiment with YBR084C-A; 0.901 (inactive) in the experiment with YCL025C; 1.32 (inactive) with YCR005C; 1.49 (inactive) in the experiment on YKL103C; 1.08 (inactive) in the experiment on BY4741; 1.26 (inactive) in the experiment on YNL142W.

In the case of `COc1ccc([N+](=O)[O-])c(S(=O)(=O)c2ccccc2)n1`, the fold change in the experiment on YBR084C-A is 0.944 (inactive); in the experiment on YCL025C, 1.08 (inactive); with YCR005C, 0.91 (inactive); with YKL103C it was 1.86; in the experiment with BY4741, 0.935 (inactive); in the experiment with YNL142W it was 0.958 (inactive).

Take `CO[C@H]1C[C@@H]2CC[C@@H](C)[C@@](O)(O2)C(=O)C(=O)N2CCCC[C@H]2C(=O)O[C@H]([C@H](C)C[C@@H]2CC[C@@H](O)[C@H](OC)C2)CC(=O)[C@H](C)/C=C(\C)[C@@H](O)[C@@H](OC)C(=O)[C@H](C)C[C@H](C)/C=C/C=C/C=C/1C`: the fold change in the experiment with YBR084C-A was 0.616; in the experiment with YCL025C, 2.29; in the experiment with YCR005C, 3.51; in the experiment with YKL103C, 2.54; with BY4741, 1.12 (inactive); in the experiment with YNL142W, 12.2.

On to `Cc1ccc(C(c2cc(Cl)c3cccnc3c2O)N2CCN(C)CC2)cc1` (stereo not given), for which the fold change in the experiment on YBR084C-A was 1.03 (inactive); in the experiment on YCL025C, 1.06 (inactive); in the experiment on YCR005C it was 0.889 (inactive); in the experiment on YKL103C, 1.8; with BY4741, 0.978 (inactive); in the experiment on YNL142W, 1.03 (inactive).

On to `C/C(=N\NC(=O)c1ccc(C(C)(C)C)cc1)c1ccccn1`, for which the fold change in the experiment on YBR084C-A is 0.975 (inactive); with YCL025C, 1 (inactive); with YCR005C, 1.47 (inactive); with YKL103C it was 0.921 (inactive); in the experiment with BY4741 it was 0.905 (inactive); in the experiment on YNL142W, 0.97 (inactive).

In the case of `CN1CCN(C(c2ccc(C(F)(F)F)cc2)c2ccc3cccnc3c2O)CC1` (stereo not given), the fold change in the experiment on YBR084C-A was 0.878 (inactive); in the experiment with YCL025C, 0.972 (inactive); in the experiment with YCR005C it was 0.725 (inactive); with YKL103C, 1.35 (inactive); with BY4741 it was 0.87 (inactive); in the experiment on YNL142W, 0.91 (inactive).

Take `O=C(CCc1ccccc1)NNC(=S)NC(=O)c1ccccc1`: the fold change with YBR084C-A is 1.22 (inactive); in the experiment on YCL025C, 0.995 (inactive); in the experiment on YCR005C, 1.32 (inactive); with YKL103C it was 2.56; with BY4741, 1.64 (inactive); with YNL142W, 1.2 (inactive).

As to `Cc1cc(C(=O)Nc2nc(-c3ccccn3)cs2)ccc1[N+](=O)[O-]`, the fold change in the experiment with YBR084C-A was 0.967 (inactive); in the experiment on YCL025C, 0.981 (inactive); in the experiment on YCR005C, 0.918 (inactive); in the experiment on YKL103C, 1.01 (inactive); in the experiment with BY4741 it was 0.913 (inactive); with YNL142W, 0.965 (inactive).

Consider `O=C(OCC(=O)N1CCN(C(=O)c2ccco2)CC1)c1cc(-c2cccc(Br)c2)nc2ccccc12`, for which the fold change was 0.779 (inactive) in the experiment with YBR084C-A; 1.14 (inactive) in the experiment with YCL025C; 1.29 (inactive) in the experiment on YCR005C; 1.33 (inactive) with YKL103C; 0.913 (inactive) with BY4741; 1.05 (inactive) with YNL142W.
